PubChem BioAssay AID1963846 (Molecular Pharmacology Branch, DTP, NCI, 2024)

Tested on: 454973-116-R2-J3-PDC complex spheroid viability
Assay: Anticancer human tumor 454973-116-R2-J3-PDC patient-derived pancreatic carcinoma cell line growth inhibition [POLQ]
Conditions: for IC50: curve of first compound; for viability, T/C: stronger effect = lower value; active = viability on the fitted dose curve at most 10% of control; inactive = the rest
Method in brief: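 Growth inhibition in 3D: complex spheroids (tumor PDC, HUVEC, MSC) treated with POLQ inhibitor combinations; where Cmax unknown, highest tested concentration 10 microM, except SN-38 at 1 microM.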

[1] = second compound 0.0316 µM, first compound 0.0316 µM
[2] = second compound 0.0316 µM, first compound 0.1 µM
[3] = second compound 0.0316 µM, first compound 0.316 µM
[4] = second compound 0.0316 µM, first compound 1 µM
[5] = second compound 0.0316 µM, first compound 3.16 µM
[6] = second compound 0.0316 µM, first compound 10 µM
[7] = second compound 0.1 µM, first compound 0.0316 µM
[8] = second compound 0.1 µM, first compound 0.1 µM
[9] = second compound 0.1 µM, first compound 0.316 µM
[10] = second compound 0.1 µM, first compound 1 µM
[11] = second compound 0.1 µM, first compound 3.16 µM
[12] = second compound 0.1 µM, first compound 10 µM
[13] = second compound 0.316 µM, first compound 0.0316 µM
[14] = second compound 0.316 µM, first compound 0.1 µM
[15] = second compound 0.316 µM, first compound 0.316 µM
[16] = second compound 0.316 µM, first compound 1 µM
[17] = second compound 0.316 µM, first compound 3.16 µM
[18] = second compound 0.316 µM, first compound 10 µM
[19] = second compound 1 µM, first compound 0.0316 µM
[20] = second compound 1 µM, first compound 0.1 µM
[21] = second compound 1 µM, first compound 0.316 µM
[22] = second compound 1 µM, first compound 1 µM
[23] = second compound 1 µM, first compound 3.16 µM
[24] = second compound 1 µM, first compound 10 µM
[25] = second compound 3.16 µM, first compound 0.0316 µM
[26] = second compound 3.16 µM, first compound 0.1 µM
[27] = second compound 3.16 µM, first compound 0.316 µM
[28] = second compound 3.16 µM, first compound 1 µM
[29] = second compound 3.16 µM, first compound 3.16 µM
[30] = second compound 3.16 µM, first compound 10 µM
[31] = second compound 10 µM, first compound 0.0316 µM
[32] = second compound 10 µM, first compound 0.1 µM
[33] = second compound 10 µM, first compound 0.316 µM
[34] = second compound 10 µM, first compound 1 µM
[35] = second compound 10 µM, first compound 3.16 µM
[36] = second compound 10 µM, first compound 10 µM
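Note: spheroids exposed to drugs for seven days before measurement.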
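Throughout, for viability, T/C: percent viability relative to DMSO vehicle control wells taken as 100%.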

C#Cc1c(F)ccc2cc(O)cc(-c3ncc4c(N5CC6CCC(C5)N6)nc(OCC56CCCN5CC(F)C6)nc4c3F)c12 (stereo unspecified) + COC1C(OC(N)=O)C(O)C(Oc2ccc3c(O)c(NC(=O)c4ccc(O)c(CC=C(C)C)c4)c(=O)oc3c2C)OC1(C)C
inactive: viability, T/C [1] 72.4% | viability, T/C [2] 48.9% | viability, T/C [3] 40% | viability, T/C [4] 31.8% | viability, T/C [5] 31.9% | viability, T/C [6] 23.4% | viability, T/C [7] 68.2% | viability, T/C [8] 55.6% | viability, T/C [9] 40.1% | viability, T/C [10] 30.3% | viability, T/C [11] 39.8% | viability, T/C [12] 25.3% | viability, T/C [13] 83.9% | viability, T/C [14] 52.4% | viability, T/C [15] 39.2% | viability, T/C [16] 29.7% | viability, T/C [17] 27.8% | viability, T/C [18] 26.7% | viability, T/C [19] 67.3% | viability, T/C [20] 52.3% | viability, T/C [21] 34.7% | viability, T/C [22] 38.3% | viability, T/C [23] 31.1% | viability, T/C [24] 27.9% | viability, T/C [25] 69.7% | viability, T/C [26] 53.4% | viability, T/C [27] 41% | viability, T/C [28] 29.8% | viability, T/C [29] 32.9% | viability, T/C [30] 24.2% | viability, T/C [31] 63% | viability, T/C [32] 56.6% | viability, T/C [33] 35% | viability, T/C [34] 30.1% | viability, T/C [35] 26.6% | viability, T/C [36] 22.6%
0.131 µM: IC50 (second compound 3.16 µM)
0.127 µM: IC50 (second compound 0.316 µM)
0.141 µM: IC50 (second compound 10 µM)
0.108 µM: IC50 (second compound 0.0316 µM)
0.15 µM: IC50 (second compound 0.1 µM)
0.104 µM: IC50 (second compound 1 µM)

COc1cccc(OCCCN)c1-c1cc(Nc2cnc(C#N)cn2)n[nH]1 + COC1C(OC(N)=O)C(O)C(Oc2ccc3c(O)c(NC(=O)c4ccc(O)c(CC=C(C)C)c4)c(=O)oc3c2C)OC1(C)C
0.0158 µM: IC50 (second compound 3.16 µM)
active: viability, T/C [2] 5.78% | viability, T/C [3] 6.6% | viability, T/C [4] 5.48% | viability, T/C [8] 5.6% | viability, T/C [9] 5.16% | viability, T/C [10] 6.37% | viability, T/C [14] 5.72% | viability, T/C [15] 3.83% | viability, T/C [16] 4.13% | viability, T/C [20] 6.82% | viability, T/C [21] 5.97% | viability, T/C [22] 5.82% | viability, T/C [26] 7.17% | viability, T/C [27] 6.78% | viability, T/C [28] 5.38% | viability, T/C [32] 6.01% | viability, T/C [33] 7.28% | viability, T/C [34] 7.27%
0.0169 µM: IC50 (second compound 0.0316 µM)
inactive: viability, T/C (second compound 0.0316 µM, first compound 0.00316 µM) 103% | viability, T/C (second compound 0.0316 µM, first compound 0.01 µM) 78% | viability, T/C [1] 16.5% | viability, T/C (second compound 0.1 µM, first compound 0.00316 µM) 103% | viability, T/C (second compound 0.1 µM, first compound 0.01 µM) 78.8% | viability, T/C [7] 12.9% | viability, T/C (second compound 0.316 µM, first compound 0.00316 µM) 95.6% | viability, T/C (second compound 0.316 µM, first compound 0.01 µM) 70.8% | viability, T/C [13] 13.3% | viability, T/C (second compound 1 µM, first compound 0.00316 µM) 97% | viability, T/C (second compound 1 µM, first compound 0.01 µM) 73.2% | viability, T/C [19] 12.2% | viability, T/C (second compound 3.16 µM, first compound 0.00316 µM) 107% | viability, T/C (second compound 3.16 µM, first compound 0.01 µM) 75.5% | viability, T/C [25] 11% | viability, T/C (second compound 10 µM, first compound 0.00316 µM) 104% | viability, T/C (second compound 10 µM, first compound 0.01 µM) 68% | viability, T/C [31] 17.8%
0.0155 µM: IC50 (second compound 1 µM)
0.0152 µM: IC50 (second compound 0.316 µM)
0.0165 µM: IC50 (second compound 0.1 µM)
0.0151 µM: IC50 (second compound 10 µM)

COc1cc(C2c3cc4c(cc3C(OC3OC5COC(C)OC5C(O)C3O)C3COC(=O)C23)OCO4)cc(OC)c1O (stereo unspecified) + COC1C(OC(N)=O)C(O)C(Oc2ccc3c(O)c(NC(=O)c4ccc(O)c(CC=C(C)C)c4)c(=O)oc3c2C)OC1(C)C
1.57 µM: IC50 (second compound 0.1 µM)
active: viability, T/C [6] 9.55% | viability, T/C [18] 9.08% | viability, T/C [24] 10.6% | viability, T/C [30] 9.62% | viability, T/C [36] 8.32%
inactive: viability, T/C [1] 97.7% | viability, T/C [2] 108% | viability, T/C [3] 92.7% | viability, T/C [4] 66.8% | viability, T/C [5] 25.3% | viability, T/C [7] 100% | viability, T/C [8] 111% | viability, T/C [9] 93% | viability, T/C [10] 67.8% | viability, T/C [11] 23.5% | viability, T/C [12] 11.8% | viability, T/C [13] 106% | viability, T/C [14] 107% | viability, T/C [15] 93.8% | viability, T/C [16] 81.2% | viability, T/C [17] 20.7% | viability, T/C [19] 116% | viability, T/C [20] 97.9% | viability, T/C [21] 95.6% | viability, T/C [22] 70.4% | viability, T/C [23] 21.9% | viability, T/C [25] 118% | viability, T/C [26] 101% | viability, T/C [27] 96.6% | viability, T/C [28] 63.6% | viability, T/C [29] 24.7% | viability, T/C [31] 122% | viability, T/C [32] 94.7% | viability, T/C [33] 90.6% | viability, T/C [34] 61.4% | viability, T/C [35] 21.4%
1.49 µM: IC50 (second compound 3.16 µM)
1.33 µM: IC50 (second compound 10 µM)
1.59 µM: IC50 (second compound 0.0316 µM)
1.81 µM: IC50 (second compound 0.316 µM)
1.6 µM: IC50 (second compound 1 µM)
